Results taken from patent US20230265389A1, “METHOD OF TRANSFECTING MACROPHAGES” (The University Court of The University of Edinburgh, priority 2020, published 2023).

Assays:
[1] = test system: human monocyte-derived macrophages; assay: Phase/contrast microscopy of transfected macrophages cultured with STING inhibitor; type: cell-based
Source text: (D) In vitro phagocytosis assay of untransfected hMDMs (control) versus GFP-transfected macrophages treated with BX-795 (GFP + BX-795), with M2-like polarising factors (GFP + BX-795 + IL4/IL13 or IL10) or DMSO control (GFP). (E) Serum liver function tests and histological analysis of picrosirius red (PSR) staining of collagen in chronic CCl4mice treated with cryopreserved hMDM (cryo), GFP-transfected hMDM treated with DMSO (GFP), GFP-transfected hMDM treated with BX-795 (GFP+B) or PBS vehicle (vehicle). *p<0.05 one-way ANOVA.
Monocyte-derived macrophages were harvested, counted and resuspended at a density of 5 × 10^7 cells/mL of CliniMACS Electroporation Buffer (Miltenyi). 25-100 µg/mL of pMax-GFP plasmid (Lonza) was mixed with the cell suspension for electroporation. For electroporation, 100 µl of cell/plasmid mix was introduced into 0.2 cm electroporation cuvettes and electroporation conducted with the CliniMACS Prodigy Electroporator (Miltenyi). Parameters assessed were 1st pulse voltage and type, and 2nd pulse voltage, type and length. Following electroporation, cells were cultured as above, with or without the STING inhibitor BX-795 (Invivogen) up to a concentration of 10 µM.

hMDMs = assay: Phagocytosis assay with pHrodo E. coli red beads; type: cell-based, human; settings: GFP-transfected hMDMs relative to untransfected hMDMs
Description: Cells were seeded in 96 well plates at a density of 200,000 per well in triplicate wells and left to adhere overnight. The following day, medium was aspirated and replaced with TexMACS medium containing NucBlue reagent (Invitrogen) and incubated for 30 min at 37° C. to stain nuclei. Medium was aspirated, cells washed in PBS, and then 100 µl PBS was added to cells. 100 µl of pHrodo E. coli red beads (diluted 1:10 in PBS) was added to the cells, and the cells were observed using an Operetta (PerkinElmer) to photograph fluorescence every 5 minutes over 145 minutes using a 40X objective. Images were analysed using Columbus. Nuclei were identified by NucBlue staining, and pHrodo red fluorescence intensity was measured in a cytoplasmic ring region around the nucleus. Fluorescence is reported as average pHrodo red fluorescence per nucleus.

Structure (SMILES): O=C(NCCCNc1nc(Nc2cccc(NC(=O)N3CCCC3)c2)ncc1I)c1cccs1 [BX-795]
- cell health and GFP expression ([1]; inhibitor at 10 µM): some loss of cells
- cell health and GFP expression ([1]; inhibitor up to 8 µM): remained healthy and GFP-expressing
- phagocytic capacity (average fluorescence of pHRodo beads per cell), of non-genetically modified hMDMs (hMDMs): approximately 66%
